Test results published in patent US20250376479A1, “EXATECAN DERIVATIVES AND USES THEREOF” (priority 2024, published 2025).

test system: NCI-H524; experiment: Cytotoxicity test, luminescent cell viability; assay type: cell-based; conditions: Homo sapiens; NCI-H524 (SCLC), 72-hour incubation
Text: (§1) Cytotoxicity of compounds was investigated using SHP77 (SCLC ATCC No. CRL-2195), NCI-H82 (SCLC, Jennio-bio No. JNO-22126A), NCI-H524 (SCLC, Pricella NO. CL-0403), NCI-H226 (Lung cancer, Pricella NO. CL-0396), NCI-H460 (LCLC, Pricella NO. CL-0299), OVCAR3 (Ovarian cancer, ATCC No. HTB-161), OV90 (Ovarian cancer, ATCC No. CRL-11732), LS1034 (Colon carcinoma, cobioer No. CBP60013), HT55 (Colon carcinoma, cobioer No. CBP60012), MDA-MB-468 (Breast cancer, ATCC No.htb-132) and NCI-N87 (Stomach cancer, ATCC No.CRL-5822). In brief, 5,000 cells/well of cancer cells were platted in white 96-well assay plates with flat clear bottom (Cat. No. BS-MP-96W, Biosharp) (excluding edge wells, which contained medium or PBS only) in 90 μL basic culture medium and were grown at 37° C. in a humidified incubator at 5% CO2 atmosphere. After incubation overnight, each compound was added to the respective wells in an amount of 10 μl of 10× concentrate tests from 100 nM to 0.015 nM. After additional 72-hour incubation, plates were removed from incubator and equilibrated to room temperature. After approximately 30 mins, 50 μL of Cell counting-lite 2.0 Luminescent Cell Viability Assay (Cat. No. G7573, Promega) were added to each well. After shaking the plates at 450 rpm for 3 mins followed by 10-min incubation without shaking, luminescence was measured on the Envision plate reader (Equipment No. 2104, PerkinElmer) with integration time of 250 ms per well. Curves of luminescence versus concentration (nM) were fitted with GraphPad Prism Software.

Point of comparison: `CC[C@@]1(O)C(=O)OCc2c1cc1n(c2=O)Cc2c-1nc1cc(F)c(C)c3c1c2[C@H](NC(=O)CC(C)C)CC3` [Compound 8], IC50 21 nM. Against it:
- CC[C@@]1(O)C(=O)OCc2c1cc1n(c2=O)Cc2c-1nc1cc(F)c(C)c3c1c2[C@H](NC(=O)C1CCC1)CC3 [Compound 6] — 2.1-fold lower, 9.9 nM
- CC[C@@]1(O)C(=O)OCc2c1cc1n(c2=O)Cc2c-1nc1cc(F)c(C)c3c1c2[C@H](NC(=O)C1CC1)CC3 [Compound 3] — 1.9-fold lower, 11.3 nM

test system: NCI-H82; experiment: Cytotoxicity test, luminescent cell viability; assay type: cell-based; conditions: Homo sapiens; NCI-H82 (SCLC), 72-hour incubation
Text: as §1

Point of comparison: `CC[C@@]1(O)C(=O)OCc2c1cc1n(c2=O)Cc2c-1nc1cc(F)c(C)c3c1c2[C@H](NC(=O)CC(C)C)CC3` [Compound 8], IC50 53.8 nM. Against it:
- CC[C@@]1(O)C(=O)OCc2c1cc1n(c2=O)Cc2c-1nc1cc(F)c(C)c3c1c2[C@H](NC(=O)C1CCC1)CC3 [Compound 6] — within 1.5-fold, 57.3 nM
- CC[C@@]1(O)C(=O)OCc2c1cc1n(c2=O)Cc2c-1nc1cc(F)c(C)c3c1c2[C@H](NC(=O)C1CC1)CC3 [Compound 3] — within 1.5-fold, 50.2 nM

test system: MDA-MB-468; experiment: Cytotoxicity test, luminescent cell viability; assay type: cell-based; conditions: Homo sapiens; MDA-MB-468 (Breast cancer), 72-hour incubation
Text: as §1

Point of comparison: `CC[C@@]1(O)C(=O)OCc2c1cc1n(c2=O)Cc2c-1nc1cc(F)c(C)c3c1c2[C@H](NC(=O)CC(C)C)CC3` [Compound 8], IC50 2.1 nM. Against it:
- CC[C@@]1(O)C(=O)OCc2c1cc1n(c2=O)Cc2c-1nc1cc(F)c(C)c3c1c2[C@H](NC(=O)C1CCC1)CC3 [Compound 6] — within 1.5-fold, 2.5 nM
- CC[C@@]1(O)C(=O)OCc2c1cc1n(c2=O)Cc2c-1nc1cc(F)c(C)c3c1c2[C@H](NC(=O)C1CC1)CC3 [Compound 3] — the same, 2.1 nM

test system: NCI-H226; experiment: Cytotoxicity test, luminescent cell viability; assay type: cell-based; conditions: Homo sapiens; NCI-H226 (Lung cancer), 72-hour incubation
Text: as §1

Point of comparison: `CC[C@@]1(O)C(=O)OCc2c1cc1n(c2=O)Cc2c-1nc1cc(F)c(C)c3c1c2[C@H](NC(=O)CC(C)C)CC3` [Compound 8], IC50 6 nM. Against it:
- CC[C@@]1(O)C(=O)OCc2c1cc1n(c2=O)Cc2c-1nc1cc(F)c(C)c3c1c2[C@H](NC(=O)C1CCC1)CC3 [Compound 6] — 1.6-fold lower, 3.8 nM
- CC[C@@]1(O)C(=O)OCc2c1cc1n(c2=O)Cc2c-1nc1cc(F)c(C)c3c1c2[C@H](NC(=O)C1CC1)CC3 [Compound 3] — 1.7-fold lower, 3.6 nM

test system: LS1034; experiment: Cytotoxicity test, luminescent cell viability; assay type: cell-based; conditions: Homo sapiens, LS-1034; LS1034 (Colon carcinoma), 72-hour incubation
Text: as §1

Point of comparison: `CC[C@@]1(O)C(=O)OCc2c1cc1n(c2=O)Cc2c-1nc1cc(F)c(C)c3c1c2[C@H](NC(=O)C1CC1)CC3` [Compound 3], IC50 41.7 nM. Against it:
- CC[C@@]1(O)C(=O)OCc2c1cc1n(c2=O)Cc2c-1nc1cc(F)c(C)c3c1c2[C@H](NC(=O)C1CCC1)CC3 [Compound 6] — within 1.5-fold, 55.3 nM
- CC[C@@]1(O)C(=O)OCc2c1cc1n(c2=O)Cc2c-1nc1cc(F)c(C)c3c1c2[C@H](NC(=O)CC(C)C)CC3 [Compound 8] — 3.8-fold higher, 159 nM

test system: HT55; experiment: Cytotoxicity test, luminescent cell viability; assay type: cell-based; conditions: Homo sapiens; HT55 (Colon carcinoma), 72-hour incubation
Text: as §1

Point of comparison: `CC[C@@]1(O)C(=O)OCc2c1cc1n(c2=O)Cc2c-1nc1cc(F)c(C)c3c1c2[C@H](NC(=O)C1CC1)CC3` [Compound 3], IC50 68.1 nM. Against it:
- CC[C@@]1(O)C(=O)OCc2c1cc1n(c2=O)Cc2c-1nc1cc(F)c(C)c3c1c2[C@H](NC(=O)C1CCC1)CC3 [Compound 6] — 3.2-fold higher, 215 nM
- CC[C@@]1(O)C(=O)OCc2c1cc1n(c2=O)Cc2c-1nc1cc(F)c(C)c3c1c2[C@H](NC(=O)CC(C)C)CC3 [Compound 8] — 1.6-fold higher, 110 nM

test system: SHP77; experiment: Cytotoxicity test, luminescent cell viability; assay type: cell-based; conditions: Homo sapiens; SHP77 (SCLC), 72-hour incubation
Text: as §1

Point of comparison: `CC[C@@]1(O)C(=O)OCc2c1cc1n(c2=O)Cc2c-1nc1cc(F)c(C)c3c1c2[C@H](NC(=O)C1CC1)CC3` [Compound 3], IC50 60 nM. Against it:
- CC[C@@]1(O)C(=O)OCc2c1cc1n(c2=O)Cc2c-1nc1cc(F)c(C)c3c1c2[C@H](NC(=O)C1CCC1)CC3 [Compound 6] — within 1.5-fold, 68 nM
- CC[C@@]1(O)C(=O)OCc2c1cc1n(c2=O)Cc2c-1nc1cc(F)c(C)c3c1c2[C@H](NC(=O)CC(C)C)CC3 [Compound 8] — 2.6-fold higher, 156 nM

test system: NCI-N87; experiment: Cytotoxicity test, luminescent cell viability; assay type: cell-based; conditions: Homo sapiens; NCI-N87 (Stomach cancer), 72-hour incubation; read-out: IC50 NC-N87
Text: as §1

Point of comparison: `CC[C@@]1(O)C(=O)OCc2c1cc1n(c2=O)Cc2c-1nc1cc(F)c(C)c3c1c2[C@H](NC(=O)CC(C)C)CC3` [Compound 8], IC50 4.7 nM. Against it:
- CC[C@@]1(O)C(=O)OCc2c1cc1n(c2=O)Cc2c-1nc1cc(F)c(C)c3c1c2[C@H](NC(=O)C1CCC1)CC3 [Compound 6] — within 1.5-fold, 3.5 nM
- CC[C@@]1(O)C(=O)OCc2c1cc1n(c2=O)Cc2c-1nc1cc(F)c(C)c3c1c2[C@H](NC(=O)C1CC1)CC3 [Compound 3] — within 1.5-fold, 5.3 nM

test system: NCI-H460; experiment: Cytotoxicity test, luminescent cell viability; assay type: cell-based; conditions: Homo sapiens; NCI-H460 (LCLC), 72-hour incubation
Text: as §1

Point of comparison: `CC[C@@]1(O)C(=O)OCc2c1cc1n(c2=O)Cc2c-1nc1cc(F)c(C)c3c1c2[C@H](NC(=O)C1CCC1)CC3` [Compound 6], IC50 6.8 nM. Against it:
- CC[C@@]1(O)C(=O)OCc2c1cc1n(c2=O)Cc2c-1nc1cc(F)c(C)c3c1c2[C@H](NC(=O)C1CC1)CC3 [Compound 3] — within 1.5-fold, 8.9 nM
- CC[C@@]1(O)C(=O)OCc2c1cc1n(c2=O)Cc2c-1nc1cc(F)c(C)c3c1c2[C@H](NC(=O)CC(C)C)CC3 [Compound 8] — 1.5-fold lower, 4.5 nM

test system: OVCAR3; experiment: Cytotoxicity test, luminescent cell viability; assay type: cell-based; conditions: Homo sapiens, OVCAR-3; OVCAR3 (Ovarian cancer), 72-hour incubation
Text: as §1

Point of comparison: `CC[C@@]1(O)C(=O)OCc2c1cc1n(c2=O)Cc2c-1nc1cc(F)c(C)c3c1c2[C@H](NC(=O)C1CCC1)CC3` [Compound 6], IC50 89.3 nM. Against it:
- CC[C@@]1(O)C(=O)OCc2c1cc1n(c2=O)Cc2c-1nc1cc(F)c(C)c3c1c2[C@H](NC(=O)C1CC1)CC3 [Compound 3] — within 1.5-fold, 91.2 nM
- CC[C@@]1(O)C(=O)OCc2c1cc1n(c2=O)Cc2c-1nc1cc(F)c(C)c3c1c2[C@H](NC(=O)CC(C)C)CC3 [Compound 8] — within 1.5-fold, 95.7 nM

test system: OV90; experiment: Cytotoxicity test, luminescent cell viability; assay type: cell-based; conditions: Homo sapiens, OV-90; OV90 (Ovarian cancer), 72-hour incubation
Text: as §1

Point of comparison: `CC[C@@]1(O)C(=O)OCc2c1cc1n(c2=O)Cc2c-1nc1cc(F)c(C)c3c1c2[C@H](NC(=O)C1CCC1)CC3` [Compound 6], IC50 8.9 nM. Against it:
- CC[C@@]1(O)C(=O)OCc2c1cc1n(c2=O)Cc2c-1nc1cc(F)c(C)c3c1c2[C@H](NC(=O)C1CC1)CC3 [Compound 3] — 1.7-fold lower, 5.1 nM
- CC[C@@]1(O)C(=O)OCc2c1cc1n(c2=O)Cc2c-1nc1cc(F)c(C)c3c1c2[C@H](NC(=O)CC(C)C)CC3 [Compound 8] — 2-fold higher, 17.8 nM

test system: not listed separately; experiment: Membrane permeability test (Caco-2 monolayer); assay type: in vitro ADME; conditions: human, Caco-2, pH 7.4
Procedure: Caco-2 cells purchased from ATCC were seeded onto 0.4 μm pore polycarbonate membranes (PC) in 96-well Corning Insert plates at 3.5×10^4 cells/cm^2, and refreshed medium every 4˜5 days until to the 21st to 28th day for confluent cell monolayer formation.
The transport buffer in the study was HBSS with 10.0 mM HEPES at pH 7.40±0.05. Each test compound was tested at 2.00 μM in the presence or absence of 1.00 μM zosuquidar bi-directionally in duplicate. Digoxin was tested at 10.0 μM in the presence or absence of 1.00 μM zosuquidar bi-directionally in duplicate, while nadolol and metoprolol were tested at 2.00 μM in the absence of zosuquidar in A to B direction in duplicate. Final DMSO concentration was adjusted to less than 1%. The plate was incubated for 2 hours in CO2 incubator at 37.0° C., with 5% CO2 at saturated humidity without shaking. And all samples after mixed with acetonitrile containing internal standard were centrifuged at 3220×g for 10 min. Concentrations of test compounds in starting solution, donor solution and receiver solution were quantified by LC-MS/MS methodologies, using peak area ratio of analyte/internal standard. And permeation of lucifer yellow through the monolayer was measured to evaluate the cellular integrity.
The apparent permeability coefficient Papp (cm/s) was calculated using the equation: […]
where dCr/dt is the cumulative concentration of compound in the receiver chamber as a function of time; Vr is the solution volume in the receiver chamber (0.0750 mL on the apical side, 0.250 mL on the basolateral side); A is the surface area for the transport, i.e., 0.143 cm2 for the area of the monolayer; C0 is the initial concentration in the donor chamber.

Point of comparison: `CC[C@@]1(O)C(=O)OCc2c1cc1n(c2=O)Cc2c-1nc1cc(F)c(C)c3c1c2[C@H](NC(=O)C1CC1)CC3` [Compound 3], Papp A→B at 2 h, 2 μM 0.279 ×10⁻⁶ cm/s. Against it:
- CC[C@@]1(O)C(=O)OCc2c1cc1n(c2=O)Cc2c-1nc1cc(F)c(C)c3c1c2[C@H](NC(=O)C1CCC1)CC3 [Compound 6] — within 1.5-fold, 0.264 ×10⁻⁶ cm/s
